This is an account of results in patent US20150260740A1, “COMPOSITION FOR USE AS AN ABNORMAL COAGULATION CONTROL PLASMA IN IN VITRO ASSAYS” (GRIFOLS, S.A., priority 2014, published 2015).

Type in all cases: biochemical
For assay [1], the system named is citrated normal human plasma. In words: prothrombin time (PT) haemostasis assay. The note with it: for effect on percentage of PT activity versus plasma having no anticoagulant: anticoagulant added to normal plasma: ferulic acid 0.5%, 1%, 1.5%, heparin 0.1, 0.5, 1 IU/mL, EDTA 0.5, 1, 1.5 mg/mL, FIG. 1-3; for effect on PT assay: summary statement, added to normal plasma, concentration not stated (EDTA: at a certain concentration). The procedure: (§1) To assess the effect of different anticoagulants in various haemostasis assays, different plasma compositions were prepared. Use was made of citrated normal human plasma (16 mM of citrate), stored at a temperature of below −70° C. and thawed in a bath at 37° C. HEPES was then added up to a final concentration of 40 mM and the pH was adjusted to between 7.4 and 7.6 using NaOH 1N. Various plasma compositions were prepared. No anticoagulant was added to the first composition, which was used as a control. Increasing concentrations of the anticoagulants being analysed were added to the others: ferulic acid (0.5% , 1% and 1.5%), heparin (0.1 IU/mL, 0.5 IU/mL and 1 IU/mL) and EDTA (0.5 mg/mL, 1 mg/mL, 1.5 mg/mL). Each plasma composition was analysed for the aforementioned PT, aPTT, TT and RT assays in a Q Haemostasis Analyzer (Diagnostic Grifols, Spain) using the reagents DG-PT, DG-APTT Synth, DG-TT L Human and GD-Fibroclotin of Diagnostic Grifols.
FIG. 1-3 show the results obtained in the PT assay with the various anticoagulants and plot the time obtained in the PT assay as a function of the concentration of the anticoagulant present in the plasma. The control (plasma having no anticoagulant) is shown by triangles and the compositions comprising ferulic acid, heparin and EDTA are shown by squares. […] On the other hand, ferulic acid and EDTA added to normal plasma do produce a reduction in the percentage of PT activity.

Assay [2] concerns citrated normal human plasma. In words: thrombin time (TT) haemostasis assay. The note with it: for effect on TT assay result versus plasma having no anticoagulant: anticoagulant added to normal plasma: ferulic acid 0.5%, 1%, 1.5%, heparin 0.1, 0.5, 1 IU/mL, EDTA 0.5, 1, 1.5 mg/mL, FIG. 7-9. The procedure: as §1
The same plasmas prepared in Example 1 were tested in the TT assay. FIG. 7-9 show the TT results obtained when testing the prepared plasmas.

Assay [3] deals with citrated normal human plasma. In words: reptilase time (RT) haemostasis assay. The note with it: for effect on RT assay result versus plasma having no anticoagulant: anticoagulant added to normal plasma: ferulic acid 0.5%, 1%, 1.5%, heparin 0.1, 0.5, 1 IU/mL, EDTA 0.5, 1, 1.5 mg/mL, FIG. 10-12; for effect on RT assay: summary statement, added to normal plasma, concentration not stated (EDTA: at a certain concentration). The procedure: as §1
The same plasmas prepared in Example 1 were tested in the RT assay.

The subject of assay [4] is citrated normal human plasma. In words: activated partial thromboplastin time (aPTT) haemostasis assay. The note with it: summary statement, added to normal plasma; concentration not stated (EDTA: at a certain concentration). The procedure:
as §1
The same plasmas prepared in Example 1 were tested in the aPTT assay (FIG. 4-6). […] In addition, the prolongation in the result of the assay is proportional to the amount of anticoagulant present in the plasma.

Regarding `COc1cc(/C=C/C(=O)O)ccc1O` [ferulic acid], in assay [1], the “effect on percentage of PT activity versus plasma having no anticoagulant” value is on record as “produce a reduction in the percentage of PT activity that is proportional to the amount of anticoagulant present in the plasma”. Further, the “effect on TT assay result versus plasma having no anticoagulant” value in assay [2] is reported as “do produce an abnormal TT”. The “effect on RT assay result versus plasma having no anticoagulant” value in assay [3] was “do produce an abnormal RT result”.

On to `O=C(O)CN(CCN(CC(=O)O)CC(=O)O)CC(=O)O` [EDTA, ethylenediaminetetraacetic acid], for which, in assay [1], the “effect on percentage of PT activity versus plasma having no anticoagulant” value was “produce a reduction in the percentage of PT activity that is proportional to the amount of anticoagulant present in the plasma”; the “effect on PT assay” value was “does not affect the results of PT, aPTT and TT assays, or does so very slightly”. Further, in assay [2], the “effect on TT assay result versus plasma having no anticoagulant” value is “does not prolong the result of the assay”. In addition, the “effect on TT assay” value in assay [2] (summary statement, added to normal plasma, EDTA at a certain concentration) is “does not affect the results of PT, aPTT and TT assays, or does so very slightly”. For the same compound, in assay [3], the “effect on RT assay result versus plasma having no anticoagulant” value is recorded as “do produce an abnormal RT result” and the “effect on RT assay” value is “can prolong the RT assay”. Further, the “effect on aPTT assay” value in assay [4] was “does not affect the results of PT, aPTT and TT assays, or does so very slightly”.

With heparin, in assay [1], the “effect on percentage of PT activity versus plasma having no anticoagulant” value was “has no effect on the PT assay” and the “effect on PT assay” value was “does not affect the PT assay, or does so to a lesser extent”. Besides, the “effect on TT assay result versus plasma having no anticoagulant” value in assay [2] is “do produce an abnormal TT”. Also, in assay [3], the “effect on RT assay result versus plasma having no anticoagulant” value is listed as “does not prolong the RT at any of the concentrations tested” and the “effect on RT assay” value is reported as “does not prolong the RT assay”. Besides, the “effect on aPTT assay” value in assay [4] is “prolongs the aPTT assay”.
